In patent publication US20080188680A1, “Process Improvement Using Solubility Characteristics” (priority 2005, published 2008):

How the values were obtained:
[1] = Gravimetric solubility of diester in methanol (saturated solution); type: physicochemical
Protocol: The solubility of dimethyl-5-nitrophthalate (“diester”) in methanol was determined through the normal boiling of methanol, and presented in the following table:
Using glass pressure test tubes immersed in boiling water, an additional point for the solubility of diester at 100° C. was measured to be about 58 wt % diester.
Generally, the solubility was determined gravimetrically. A dilute slurry of diester and methanol was heated to a desired temperature. As needed, more diester solids were added to maintain a dilute slurry. The slurry was heated to a known temperature and stirred for approximately 15-30 minutes to assure the diester solids were equilibrated and the solution was saturated. Then, the stirring was stopped and the diester solids were allowed to settle. A sample of the supernatant liquid was obtained, the liquid was evaporated and the weight of the residual diester was measured. The weight of the residual diester solid was used to calculate the solubility of the diester solid in the methanol. This procedure was repeated for several different temperatures. Then, from the highest temperature, the procedure was repeated except the slurry was cooled to each sampling point and methanol was added instead of diester solids as necessary to maintain a dilute slurry. The difference in the solubility data sets between the heating data set and the cooling data set is an indication of how well equilibrium was obtained.

[2] = Activity coefficient of diester in saturated methanol solution, transformed from the solubility data; type: physicochemical; parameters: key: γ = ideal mole-fraction solubility / actual mole-fraction solubility
From the text: Solubility data can be compared to the ideal solubility. Two component solubility data (solute and solvent) at various temperatures can be easily calculated as a mole fraction of the solute in solution. The ratio of the mole fraction ideal solubility, xsolute ideal (calculated at the same temperature as the solubility data point) to each mole fraction solubility data point, xsolute actual is the activity coefficient, γsolute. These relationships are expressed mathematically, per equation (2)
In order to solve equation (3) for the activity coefficient, three experimental values are necessary: (i) the melting point of the solute, (ii) the heat of fusion of the solute in cal/g·mol and (iii) at least one value for the solubility of the specific solute in a specific solvent. Assuming the heat of fusion of the solute is constant over the range of temperatures, the relationship in equation (3) allows the mathematical transformation of the temperature and solubility data into an activity coefficient for the solute at each temperature. The terms in equation (3) are defined as follows: γsolute is the activity coefficient of the solute, xsolute is the mole fraction of the solute at a given temperature, T, in K; −ΔH^Fsolute is the heat of fusion in cal/g·mol of the solute, R is the ideal gas constant in cal/K·mol, T is the temperature of a given value for xsolute in K; and Tm(solute) is the melting temperature of the solute in K.
To interpret the solubility information, additional physical properties of diester were measured. The melting point was 124° C. (123-125° C.). The heat of fusion was 7422 cal/g·mole.
The solubility of diester, being a non-electrolyte, would obey the following thermodynamic relationship.
This relationship allows the weight % solubility versus temperature data to be mathematically transformed into an activity coefficient versus temperature data. The corresponding activity coefficient for each solubility data point is as follows: […]

- solubility ([1]; 25° C.): about 1 wt. %
- wt % Diester (solubility in methanol) ([1]; methanol, 25.5 C): 1.0% wt %
- wt % Diester (solubility in methanol) ([1]; methanol, 31.1 C): 1.2% wt %
- wt % Diester (solubility in methanol) ([1]; methanol, 34.1 C): 1.4% wt %
- wt % Diester (solubility in methanol) ([1]; methanol, 34.6 C): 1.5% wt %
- wt % Diester (solubility in methanol) ([1]; methanol, 39.6 C): 1.9% wt %
- wt % Diester (solubility in methanol) ([1]; methanol, 44.0 C): 2.3% wt %
- wt % Diester (solubility in methanol) ([1]; methanol, 44.3 C): 2.3% wt %
- wt % Diester (solubility in methanol) ([1]; methanol, 52.4 C): 3.5% wt %
- wt % Diester (solubility in methanol) ([1]; methanol, 54.1 C): 3.7% wt %
- wt % Diester (solubility in methanol) ([1]; methanol, 61.2 C): 5.7% wt %
- wt % Diester (solubility in methanol) ([1]; methanol, 65.3 C): 7.0% wt %
- wt % Diester (solubility in methanol) ([1]; methanol, 65.4 C): 7.0% wt %
- wt % Diester (solubility in methanol) ([1]; methanol, 100 C, glass pressure test tubes in boiling water): 58.0% wt %
- wt % Diester (solubility in methanol) ([1]; methanol, 100 C, glass pressure test tubes in boiling water, listed as diester): about 58 wt %
- wt % Diester (solubility in methanol) ([1]; methanol, 100 C, glass pressure test tubes in boiling water, listed as dimethyl-5-nitro-isophthalate): about 58 wt %
- maximum solubility obtained below the normal boiling point of methanol ([1]; methanol, below normal boiling point): 7 wt. %
- concentration of diester solutions obtained ([1]; methanol, temperature above 100° C.): greater than 70 wt. %
- Activ Coef ([2]; 25.5 C): 36.3
- Activ Coef ([2]; 31.1 C): 33.7
- Activ Coef ([2]; 34.1 C): 32.4
- Activ Coef ([2]; 34.6 C): 32.1
- Activ Coef ([2]; 39.6 C): 30.1
- Activ Coef ([2]; 44.0 C): 28.4
- Activ Coef ([2]; 44.3 C): 28.3
- Activ Coef ([2]; 52.4 C): 25.3
- Activ Coef ([2]; 54.1 C): 24.7
- Activ Coef ([2]; 61.2 C): 21.9
- Activ Coef ([2]; 65.3 C): 20.4
- Activ Coef ([2]; 65.4 C): 20.5
- Activ Coef ([2]; 100.0 C): 3.5
Structure (SMILES): COC(=O)c1cc(C(=O)OC)cc([N+](=O)[O-])c1 [Diester, dimethyl-5-nitro-isophthalate]
